Blank lines part the entries; values can stand above or below the compound they belong to. Square brackets hold non-standard residues; d marks the D form. Ends that are not written are not given here. Bip = N[C@@H](Cc1ccc(-c2ccccc2)cc1)C(=O)O; Dip = N[C@H](C(=O)O)C(c1ccccc1)c1ccccc1; hPhe = N[C@@H](CCc1ccccc1)C(=O)O
Experiments:
saphenous vein of piglet = assay: PGE2-induced dilation of saphenous vein rings, organ bath assay; design: species or system Yorkshire piglets; conditions: 1 μM peptides, 1 μM PGE2; rings pre-constricted with U46619; average of 2-8 experiments
Method: Animals. Yorkshire piglets (2-4 days old) were used in this study, according to a protocol approved by the Animal Care Committee of the Research Centre of Ste-Justine Hospital. Briefly, animals were anesthetized with 1.5% halothane and the lower external saphenous veins removed and placed in cold Krebs buffer (pH 7.4) of the following composition (mM): NaCl 120, KCl 4.5, CaCl2 2.5, MgSO4 1.0, NaHCO3 27, KH2PO4 1.0, glucose 10, to which 1.5 U/ml heparin was added.
Organ bath assay. The saphenous veins were cleaned of extraneous tissue and cut into 4 mm rings that were placed in individual jacketed organ baths (15 ml; Radnoti Glass, Monrovia, Calif.) containing Krebs buffer and maintained at 37° C. The solution was bubbled with a mixture of 95% O2-5% CO2. In each experiment, 8 rings were used (4 from each saphenous vein) and were equilibrated for 60 min under 2.0 gr passive tension, with frequent washing and tension adjustment. Tension was measured by force-displacement transducers and was recorded on a computerized data acquisition system using the Work Bench software (both from Kent Scientific, Litchfield, Conn.).
Experimental protocol. In a first set of experiments, the relative distribution of dilatory EP receptor subtypes was ascertained using a combination of EP receptor agonists and antagonists. The vasodilatory response of the lower external saphenous veins to PGE2 appears to result from the stimulation of 30% EP2 and 70% EP4. Tissues were initially challenged with 2×10^−7 U46619 which induced a 1.5 to 2.0 gr increase in tension. […] When the response to U46619 reached a steady state, agents were added. When no response to the agents were observed, a period of 10 minutes was allowed to insure proper distribution of the agents in the tissue. Dose-response curves to PGE2 (10^−10−10^−6 M) were then obtained in the presence of absence of each of the tested drugs.
The results are average of 2-8 experiments. The results are tabulated as percent reversal of 1 μM PGE2-induced […] in the presence of 1 μM peptides. The peptides shown here contain productive and effective substitutions in the parent peptide PHG 213 (SEQ ID NO:1)

EP4 receptor [1] = assay: Basal and PGE2-stimulated cAMP levels in EP4/293 cells; assay type: cell-based, Human; conditions: forskolin 100 μM added for 15 min, 100 μM IBMX
Description: (§1) Data are averages of four replicates.

EP4 receptor [2] = molecular target: EP4 receptor (Homo sapiens, UniProt P35408, P4S); assay: as above; assay type: cell-based
Sequence of EP4 receptor (Homo sapiens, UniProt P35408, P4S) (P35408 whole entry P4S): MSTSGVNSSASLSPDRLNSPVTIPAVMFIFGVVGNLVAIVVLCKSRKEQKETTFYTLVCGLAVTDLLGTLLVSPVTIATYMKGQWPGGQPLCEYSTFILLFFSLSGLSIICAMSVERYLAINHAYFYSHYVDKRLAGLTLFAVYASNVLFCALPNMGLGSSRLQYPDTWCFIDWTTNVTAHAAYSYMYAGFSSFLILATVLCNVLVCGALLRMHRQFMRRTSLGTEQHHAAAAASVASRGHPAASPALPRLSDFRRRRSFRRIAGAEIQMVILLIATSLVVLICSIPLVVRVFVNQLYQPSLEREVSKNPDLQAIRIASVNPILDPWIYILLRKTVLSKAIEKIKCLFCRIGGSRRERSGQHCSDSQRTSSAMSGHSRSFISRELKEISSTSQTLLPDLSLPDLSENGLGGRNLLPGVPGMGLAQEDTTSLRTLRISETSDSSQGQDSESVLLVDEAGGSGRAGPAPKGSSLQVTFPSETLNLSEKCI
Description: as §1

EP4 receptor [3] = assay: Ocular perfusion pressure in porcine eye model (ex vivo vasomotricity of choroid); design: species or system newborn pig; conditions: PHG213 infused at 100 μM after U46619 1 μM and PGE2 1 μM
Description: In order to test the efficacy of PHG213 (SEQ ID NO: 1) on EP4 receptor function, an ex vivo assay of vasomotricity of porcine choroid was used. The dilatory response to PGE2 in this vascular bed was previously shoen to be mediated by EP4 receptor (Abran, D. et al. 1997. Am. J. Physiol. 272: R995-1001).
Method: The method as described in detail by Abran et al. (1997) was followed exactly. A vortex vein from the eye of a newborn pig was catheterized with a 27-gauge needle and perfused with Kreb's solution until perfusion pressure was stable. The vasculature was first constricted with a thromboxane mimetic, U46619 (1 μM), and then PGE2 was infused at 1 μM. Once the reversal of constriction reached a plateau, then PHG213 was infused at 100 μM and the perfusion pressure was recorded.
Positive values of perfusion pressure indicate constriction whereas negative values indicate dilation of the vasculature. PGE2 reversed the constriction produced by U46619. […] Since it is known that the dilatory effects of PGE2 are predominantly mediated by EP4 receptor in choroid of the newborn pig, PHG 213 antagonized the actions of EP4 receptor and blocked the dilation produced by this receptor.

normal rats = assay: Glomerular filtration rate and urinary volume in normal rats; assay type: in vivo, Sprague-Dawley adult rats; conditions: i.v. infusion 6 μmol/Kg/h
Method: (§2) Method: Sprague-Dawley adult rats (˜250 g) were anesthetized with 50 mg/kg pentobarbitone. Left jugular vein (for infusion) and left carotid artery (for measuring blood pressure) were catheterized and another catheter was placed at the tip of the bladder for collecting urine. Infusion of [^3H]-inulin in saline (2 μCi/Kg/h) was started and continued for 2 h to stabilize the system. Urine collection was exactly for 20 min and at 10 min mark, 0.1 ml of blood was withdrawn into heparinized tubes. Blood was centrifuged and radioactivity in plasma was counted. After 10 min and 30 min (30 min and 60 min since the start of the previous urine collection), the process was repeated. The antagonist, PHG 213, was infused in saline i.v. at 6 μmol/Kg/h for one hour before the start of first urine collection. Urinary volume (UV) is calculated and expressed as μl of urine/h corrected for the weight of the animal. GFR was calculated as the ratio of urinary […] corrected for the volume of the urine and the weight of the animal.

diabetic rats = assay: Glomerular filtration rate and urinary volume in streptozotocin-induced diabetic rats; assay type: in vivo, Sprague-Dawley adult rats; conditions: systemic infusion
Method: as §2
Method: Sprague-Dawley adult rats (˜250 g) were injected i.p. with streptozotocin (45-50 mg/Kg) and two days later, the urine was tested for glucose and proteinuria. Two weeks later, the rats that tested positive for both markers were chosen to test the effects of PHG 213 (SEQ ID NO:1) on GFR and UV using a method described above.

[4] = system: ductus arteriosus of fetal sheep; assay: Ductus arteriosus diameter in fetal sheep by Doppler echocardiography; assay type: in vivo; conditions: 2 mg bolus followed by 1 mg/Kg infusion over 15 min
Method: Pregnant ewes (129-140 days of gestation) was anesthetized with ketamine (30 mg/Kg i.v.), a caesarian section was performed and the fetus exteriorized. To mimic fetal respiratory conditions, the head of the fetus was submerged in a glove filled with saline. Femoral and jugular veins were catheterized for systemic blood pressure measurements and drug infusions respectively. Ducuts arteriosus (DA) diameter was measured using Doppler echocardiography as described before (Teyssier, G. et al. 1989. J. Cardiovascular Technol. 8: 259-266). Echocardiographic measurements were performed with an Acuson 128 XP/10C real time ultrasound imaging system using 7.5 or 5-MHz transducers duplexed with a range-gated Doppler. Doppler signals were filtered by a 100-Hz high-pass filter. The DA was visualized through a left second intercostal parasternal approach. After the drugs were injected, measurements of DA diameter were repeated 3 times at 5 min intervals for the next 20-25 min.
DA was unchanged for 40 min during the stabilization period. […] PHG213, a peptide antagonist of EP4 receptor, blocked the dilatory action of the receptor which is responsible for maintaining the ductus open in the fetus.

[5] = system: human fetal spleen cells in coculture with fixed SaOS-2 cells; assay: Osteoclastogenesis (TRAP+ cells) in coculture of human fetal spleen cells and fixed SaOS-2 cells; assay type: cell-based; conditions: PHG213 100 μM, three days; n=10
Method: Method: SaOs-2 cells (immortalized cell line of human osteoblasts) were grown for four days in 24-well plates in alpha-MEM medium containing 10% fetal calf serum , vitamin D3 (10^−7). Confluent SaOs-2 cells were fixed in 1% paraformaldehyde M) and dexamethasone (10^−8 M in phosphate-buffered sline (PBS) for 8 min. The cells were rinsed with PBS 4 times and alpha-MEM containing 10% fetal calf serum and vitamin D3 (10^−7 M) was added.
Two days before, spleens from human abortuses were cut into small pieces and triturated several times release the cells. The spleen cells were cultured in alpha-MEM containing 10% fetal calf serum for 2 days. Spleen cells were trypsinized, rinsed once in PBS and counted using a coulter counter. An aliquot of spleen cells (10^5 cells/well) were placed over the monolayer of fixed SaOs-2 cells for 2 h, after which PHG213 (100 μM) was added. Three days later, the cells were fixed in 4% paraformaldehyde in PBS, rinsed with water and tartarat-resistant […] (TRAP) was stained using a commercial kit (Sigma, St. Louis, Mo.). TRAP-positive cells were viewed under a microscope and counted.

Compound: 4 (IFTSYEAL; Peptide inhibitor of prostaglandin E2 receptor subtype EP4) [compound 4]
% blockade of PGE2 induced vasodilation (saphenous vein of piglet): 60.0%

Compound: 3 (IFTSAECL; Peptide inhibitor of prostaglandin E2 receptor subtype EP4) [compound 3]
% blockade of PGE2 induced vasodilation (saphenous vein of piglet): 20.0%

Compound: 6 (IFTSYDCL; Peptide inhibitor of prostaglandin E2 receptor subtype EP4) [compound 6]
% blockade of PGE2 induced vasodilation (saphenous vein of piglet): 30.0%

Compound: 8 ([Dip]TSYEAL) [compound 8]
% blockade of PGE2 induced vasodilation (saphenous vein of piglet): 64.5%

Compound: 7 ([Bip]TSYEAL) [compound 7]
% blockade of PGE2 induced vasodilation (saphenous vein of piglet): 65.5%

Compound: 9 ([hPhe]TSYEAL) [compound 9]
% blockade of PGE2 induced vasodilation (saphenous vein of piglet): 34.0%

Compound: 1 (IFTSYECL; Peptide inhibitor of prostaglandin E2 receptor subtype EP4) [compound 1]
% blockade of PGE2 induced vasodilation (saphenous vein of piglet): 50.0%

Compound: 5 (ILASYECL; Peptide inhibitor of prostaglandin E2 receptor subtype EP4) [compound 5]
% blockade of PGE2 induced vasodilation (saphenous vein of piglet): 60.0%

Compound: C=C[C@@]1(C)CC(=O)[C@]2(O)[C@@]3(C)[C@@H](O)CCC(C)(C)[C@@H]3[C@H](O)[C@H](OC(C)=O)[C@@]2(C)O1 [FSK, forskolin, reference compound]
CAMP (pmol/ml/10^5 cells) (EP4 receptor [1]): >270 pmol/ml/10^5 cells

CAMP (pmol/ml/10^5 cells) (EP4 receptor [2]; PGE2 1 μM added for 15 min, 100 μM IBMX): >270 pmol/ml/10^5 cells
Compound: CCCCC[C@H](O)/C=C/[C@H]1[C@H](O)CC(=O)[C@@H]1C/C=C\CCCC(=O)O [PGE2, Prostaglandin E2, reference compound]

Compound: 2 (IFASYECL; Peptide inhibitor of prostaglandin E2 receptor subtype EP4) [compound 2]
% blockade of PGE2 induced vasodilation (saphenous vein of piglet): 35.0%

% inhibition of basal cAMP levels (EP4 receptor [2]; PHG213 100 μM with 100 μM IBMX for 1 h): 60.7%
CAMP (pmol/ml/10^5 cells) (EP4 receptor [2]; basal, PHG213 100 μM with 100 μM IBMX for 1 h, vehicle 69.9): 27.5 pmol/ml/10^5 cells
Compound: PHG213: peptide antagonist of EP4 receptor, parent peptide, D-amino acids (IFTSYECL; also: D-amino acids, places not given here)
Block of the dilatory effect of PGE2 on ocular perfusion pressure (EP4 receptor [3]): blocked this dilatory effect of PGE2 completely
Glomerular filtration rate (GFR) increase (normal rats): 157%
Mean blood pressure (normal rats): not significantly altered
Urinary flow rate (UV) increase (normal rats): 2.3 fold
GFR (diabetic rats): increased
Mean blood pressure (diabetic rats): not significantly altered
UV (diabetic rats): increased
Ductus arteriosus (DA) diameter [4]: started to constrict and continued for another 15 min and was irreversible
Reduction of number of TRAP-positive cells (osteoclasts) [5]: half
